Target: Heat shock protein HSP 90-beta (Homo sapiens, UniProt P08238)
Experiment: Binding affinity to Hsp90 after 4 hrs by fluorescence polarization assay
Details: not given

Chain of Heat shock protein HSP 90-beta (P08238 whole entry): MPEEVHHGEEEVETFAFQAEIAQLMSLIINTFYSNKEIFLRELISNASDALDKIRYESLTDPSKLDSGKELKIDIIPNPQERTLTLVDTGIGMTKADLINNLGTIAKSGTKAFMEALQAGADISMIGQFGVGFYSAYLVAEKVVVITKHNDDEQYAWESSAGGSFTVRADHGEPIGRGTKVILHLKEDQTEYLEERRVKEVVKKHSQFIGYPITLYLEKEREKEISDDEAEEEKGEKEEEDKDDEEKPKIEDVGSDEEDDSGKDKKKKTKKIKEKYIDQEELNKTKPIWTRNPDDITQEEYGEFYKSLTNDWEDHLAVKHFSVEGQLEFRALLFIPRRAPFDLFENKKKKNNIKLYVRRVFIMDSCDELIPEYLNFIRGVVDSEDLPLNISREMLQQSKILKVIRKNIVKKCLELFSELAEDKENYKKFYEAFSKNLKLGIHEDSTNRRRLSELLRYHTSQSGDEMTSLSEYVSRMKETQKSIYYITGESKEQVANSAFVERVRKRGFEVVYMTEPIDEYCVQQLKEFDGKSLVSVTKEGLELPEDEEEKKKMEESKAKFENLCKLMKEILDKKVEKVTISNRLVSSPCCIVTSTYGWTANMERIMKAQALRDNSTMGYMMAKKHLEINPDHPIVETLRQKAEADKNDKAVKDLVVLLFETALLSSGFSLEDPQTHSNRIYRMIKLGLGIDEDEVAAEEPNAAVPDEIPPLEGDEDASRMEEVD

Structure (SMILES) | IC50 [nM]
CCNC(=O)c1noc(-c2cc(C(C)C)c(O)cc2O)c1NC(=O)c1cccc2cccnc12 | 36
CCNC(=O)c1noc(-c2cc(C(C)C)c(O)cc2O)c1NC(=O)C1CCNCC1 | < 5
CCNC(=O)c1noc(-c2cc(Cl)c(O)cc2O)c1NC(=O)c1sccc1C | 74
CCNC(=O)c1noc(-c2cc(Cl)c(O)cc2O)c1NC(=O)C(C)(C)C | 85
C=CC(=O)Nc1c(C(=O)NCC)noc1-c1cc(Cl)c(O)cc1O | 167
CCNC(=O)c1noc(-c2cc(C(C)C)c(O)cc2O)c1NC(=O)C1CCC(C(C)(C)C)CC1 (stereo not given) | 30
CCNC(=O)c1noc(-c2cc(C(C)C)c(O)cc2O)c1NC(=O)[C@H]1CC[C@H](CNS(=O)(=O)c2ccccc2)CC1 | < 5
CCNC(=O)c1noc(-c2cc(C(C)C)c(O)cc2O)c1NC(=O)[C@@H]1CC[C@H](C(=O)O)C1 | 39
CCNC(=O)c1noc(-c2cc(C(C)C)c(O)cc2O)c1NC(=O)c1nc(C)c(-c2ccc(F)cc2)s1 | 40
CCNC(=O)c1noc(-c2cc(Cl)c(O)cc2O)c1NC(=O)CCN1CCOCC1 | 168
CCNC(=O)c1noc(-c2cc(C(C)C)c(O)cc2O)c1NC(=O)[C@@H]1CC[C@H](CN2CCOCC2)C1 (relative stereo) | 12
CCNC(=O)c1noc(-c2cc(C(C)C)c(O)cc2O)c1NC(=O)[C@H]1CC[C@@H](N2CCOCC2)CC1 | 7.4
CCNC(=O)c1noc(-c2cc(C(C)C)c(O)cc2O)c1NC(=O)[C@H]1CC[C@H](N)CC1 | 28
CCNC(=O)c1noc(-c2cc(C(C)C)c(O)cc2O)c1NC(=O)c1ccc(N2CCN(C)CC2)cc1 | 24
CCNC(=O)c1noc(-c2cc(C(C)C)c(O)cc2O)c1NC(=O)c1ccc(C)o1 | < 5
COc1ccc(C(=O)Nc2c(C(=O)NCC(F)(F)F)noc2-c2cc(Cl)c(O)cc2O)cc1 | 160
CCNC(=O)c1noc(-c2cc(C(C)C)c(O)cc2O)c1NC(=O)[C@@H]1CC[C@H](CO)C1 (relative stereo) | 12.6
CCNC(=O)c1noc(-c2cc(Cl)c(O)cc2O)c1NC(=O)c1ccc(Br)cc1 | 153

Structure (SMILES) | IC50 [nM]
CCNC(=O)c1noc(-c2cc(C(C)C)c(O)cc2O)c1NC(=O)C1CCN(C)CC1 | 24
CCNC(=O)c1noc(-c2cc(C(C)C)c(O)cc2O)c1NC(=O)c1ccc2cc[nH]c2c1 | 33
CCNC(=O)c1noc(-c2cc(C(C)C)c(O)cc2O)c1NC(=O)c1sc(-c2ccncc2)nc1C | 27
CCNC(=O)c1noc(-c2cc(Cl)c(O)cc2O)c1NCc1ccc(OC)cc1 | 430
CCNC(=O)c1noc(-c2cc(C(C)C)c(O)cc2O)c1NC(=O)c1ccc(Br)o1 | 22
CCNC(=O)c1noc(-c2cc(C(C)C)c(O)cc2O)c1NC(=O)c1cc(-c2ccccc2)on1 | 250
CCNC(=O)c1noc(-c2cc(C(C)C)c(O)cc2O)c1NC(=O)C1CCC(C(F)(F)F)CC1 (stereo not given) | 240
CCNC(=O)c1noc(-c2cc(C(C)C)c(O)cc2O)c1NC(=O)c1oc2ccccc2c1C | 260
CCNC(=O)c1noc(-c2cc(C(C)C)c(O)cc2O)c1NC(C)=O | 55
CCNC(=O)c1noc(-c2cc(Cl)c(O)cc2O)c1NC(=O)c1cc(OC)c(OC)c(OC)c1 | 130
CCNC(=O)c1noc(-c2cc(Cl)c(O)cc2O)c1NC(=O)C12CC3CC(CC(C3)C1)C2 | 250
CCNC(=O)c1noc(-c2cc(C(C)C)c(O)cc2O)c1NC(=O)c1ccco1 | < 5
CCNC(=O)c1noc(-c2cc(C(C)C)c(O)cc2O)c1NC(=O)c1ccc(OC)cc1 | 26
CCNC(=O)c1noc(-c2cc(C(C)C)c(O)cc2O)c1NC(=O)[C@H]1CC[C@@H](CO)CC1 | 15
CCNC(=O)c1noc(-c2cc(Cl)c(O)cc2O)c1NCc1sccc1C | 230
CCNC(=O)c1noc(-c2cc(Cl)c(O)cc2O)c1NC1CCN(C)CC1 | 1600
CCNC(=O)c1noc(-c2cc(C(C)C)c(O)cc2O)c1NC(=O)[C@H]1CC[C@H](CNS(=O)(=O)c2ccc(F)cc2)CC1 | 5.4

System: NCI-H460
Experiment: Cytotoxicity against human NCI-H460 after 72 hrs by sulforhodamine B assay
Type: functional, cell-based
Details: NCI-H460, 72 h

Structure (SMILES) | IC50 [nM]
CCNC(=O)c1noc(-c2cc(C(C)C)c(O)cc2O)c1NC(=O)c1cccc2cccnc12 | 490
CCNC(=O)c1noc(-c2cc(C(C)C)c(O)cc2O)c1NC(=O)C1CCNCC1 | > 1000
CCNC(=O)c1noc(-c2cc(Cl)c(O)cc2O)c1NC(=O)c1sccc1C | 410
CCNC(=O)c1noc(-c2cc(Cl)c(O)cc2O)c1NC(=O)C(C)(C)C | 310
C=CC(=O)Nc1c(C(=O)NCC)noc1-c1cc(Cl)c(O)cc1O | > 1000
CCNC(=O)c1noc(-c2cc(C(C)C)c(O)cc2O)c1NC(=O)C1CCC(C(C)(C)C)CC1 (stereo not given) | 200
CCNC(=O)c1noc(-c2cc(C(C)C)c(O)cc2O)c1NC(=O)[C@H]1CC[C@H](CNS(=O)(=O)c2ccccc2)CC1 | > 1000
CCNC(=O)c1noc(-c2cc(C(C)C)c(O)cc2O)c1NC(=O)[C@@H]1CC[C@H](C(=O)O)C1 | > 1000
CCNC(=O)c1noc(-c2cc(C(C)C)c(O)cc2O)c1NC(=O)c1nc(C)c(-c2ccc(F)cc2)s1 | > 1000
CCNC(=O)c1noc(-c2cc(Cl)c(O)cc2O)c1NC(=O)CCN1CCOCC1 | 130
CCNC(=O)c1noc(-c2cc(C(C)C)c(O)cc2O)c1NC(=O)[C@@H]1CC[C@H](CN2CCOCC2)C1 (relative stereo) | 170
CCNC(=O)c1noc(-c2cc(C(C)C)c(O)cc2O)c1NC(=O)[C@H]1CC[C@@H](N2CCOCC2)CC1 | 610
CCNC(=O)c1noc(-c2cc(C(C)C)c(O)cc2O)c1NC(=O)[C@H]1CC[C@H](N)CC1 | > 1000
CCNC(=O)c1noc(-c2cc(C(C)C)c(O)cc2O)c1NC(=O)c1ccc(N2CCN(C)CC2)cc1 | > 1000
CCNC(=O)c1noc(-c2cc(C(C)C)c(O)cc2O)c1NC(=O)c1ccc(C)o1 | 16
COc1ccc(C(=O)Nc2c(C(=O)NCC(F)(F)F)noc2-c2cc(Cl)c(O)cc2O)cc1 | > 1000
CCNC(=O)c1noc(-c2cc(C(C)C)c(O)cc2O)c1NC(=O)[C@@H]1CC[C@H](CO)C1 (relative stereo) | > 260
CCNC(=O)c1noc(-c2cc(Cl)c(O)cc2O)c1NC(=O)c1ccc(Br)cc1 | > 1000

Structure (SMILES) | IC50 [nM]
CCNC(=O)c1noc(-c2cc(C(C)C)c(O)cc2O)c1NC(=O)C1CCN(C)CC1 | > 1000
CCNC(=O)c1noc(-c2cc(C(C)C)c(O)cc2O)c1NC(=O)c1ccc2cc[nH]c2c1 | 170
CCNC(=O)c1noc(-c2cc(C(C)C)c(O)cc2O)c1NC(=O)c1sc(-c2ccncc2)nc1C | > 1000
CCNC(=O)c1noc(-c2cc(Cl)c(O)cc2O)c1NCc1ccc(OC)cc1 | > 1000
CCNC(=O)c1noc(-c2cc(C(C)C)c(O)cc2O)c1NC(=O)c1ccc(Br)o1 | 19
CCNC(=O)c1noc(-c2cc(C(C)C)c(O)cc2O)c1NC(=O)c1cc(-c2ccccc2)on1 | > 1000
CCNC(=O)c1noc(-c2cc(C(C)C)c(O)cc2O)c1NC(=O)C1CCC(C(F)(F)F)CC1 (stereo not given) | 42
CCNC(=O)c1noc(-c2cc(C(C)C)c(O)cc2O)c1NC(=O)c1oc2ccccc2c1C | > 1000
CCNC(=O)c1noc(-c2cc(C(C)C)c(O)cc2O)c1NC(C)=O | 81
CCNC(=O)c1noc(-c2cc(Cl)c(O)cc2O)c1NC(=O)c1cc(OC)c(OC)c(OC)c1 | > 1000
CCNC(=O)c1noc(-c2cc(Cl)c(O)cc2O)c1NC(=O)C12CC3CC(CC(C3)C1)C2 | 750
CCNC(=O)c1noc(-c2cc(C(C)C)c(O)cc2O)c1NC(=O)c1ccco1 | 22
CCNC(=O)c1noc(-c2cc(C(C)C)c(O)cc2O)c1NC(=O)c1ccc(OC)cc1 | 17
CCNC(=O)c1noc(-c2cc(C(C)C)c(O)cc2O)c1NC(=O)[C@H]1CC[C@@H](CO)CC1 | 870
CCNC(=O)c1noc(-c2cc(Cl)c(O)cc2O)c1NCc1sccc1C | > 1000
CCNC(=O)c1noc(-c2cc(Cl)c(O)cc2O)c1NC1CCN(C)CC1 | > 1000
CCNC(=O)c1noc(-c2cc(C(C)C)c(O)cc2O)c1NC(=O)[C@H]1CC[C@H](CNS(=O)(=O)c2ccc(F)cc2)CC1 | 640

Source: ChEMBL document CHEMBL1938264, “Novel 3,4-isoxazolediamides as potent inhibitors of chaperone heat shock protein 90” (J Med Chem, 2011)
